Laboratory results: the supplement of paper PMC10307832

Assays:
Assay in all cases: relative viability (nuclei count vs DMSO), 5 days (fraction); higher = more cells survive
[1] = compound: Cc1ccc2nc(NCCN)c3ncc(C)n3c2c1 + Nc1nc2[nH]cc(CCc3ccc(C(=O)N[C@@H](CCC(=O)O)C(=O)O)cc3)c2c(=O)[nH]1 [Pemetrexed] (partner 0.2 µM)
Outline: (§1)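 Lung cancer cell lines were pin-tool dosed in 1536-well plates on the day after seeding, with either a lone drug or a fixed anchor-drug dose plus five library-drug doses (not always all listed) in √10 steps. Nuclei were counted on 4× images after 5 days. Relative viability is the ratio of treated-well to vehicle-well nuclei counts, with each value a median of duplicate plates.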

[2] = compound: Cc1ccc2nc(NCCN)c3ncc(C)n3c2c1 + O=C(c1cc(Cc2n[nH]c(=O)c3ccccc23)ccc1F)N1CCN(C(=O)C2CC2)CC1 [Olaparib] (partner 8 µM)
Outline: as §1

[3] = compound: O=C(/C=C/c1ccccc1)NC(NC(=S)Nc1cccc2cccnc12)C(Cl)(Cl)Cl [Salubrinal] + CS(=O)(=O)N1CCN(Cc2cc3nc(-c4cccc5[nH]ncc45)nc(N4CCOCC4)c3s2)CC1 [Pictilisib] (partner 1 µM)
Outline: as §1

[4] = compound: O=C(/C=C/c1ccccc1)NC(NC(=S)Nc1cccc2cccnc12)C(Cl)(Cl)Cl [Salubrinal] + O=C(CCCCCCC(=O)Nc1ccccc1)NO [Vorinostat] (partner 1 µM)
Outline: as §1

Cell Line	relative viability ([1]; first compound 0.04 µM)	relative viability ([1]; first compound 0.1265 µM)	relative viability ([1]; first compound 0.4 µM)	relative viability ([1]; first compound 1.265 µM)	relative viability ([1]; first compound 4 µM)	relative viability ([2]; first compound 0.04 µM)	relative viability ([2]; first compound 0.1265 µM)	relative viability ([2]; first compound 0.4 µM)	relative viability ([2]; first compound 1.265 µM)	relative viability ([2]; first compound 4 µM)	relative viability ([3]; first compound 0.08 µM)	relative viability ([3]; first compound 0.253 µM)	relative viability ([3]; first compound 0.8 µM)	relative viability ([3]; first compound 2.53 µM)	relative viability ([3]; first compound 8 µM)	relative viability ([4]; first compound 0.08 µM)	relative viability ([4]; first compound 0.253 µM)	relative viability ([4]; first compound 0.8 µM)	relative viability ([4]; first compound 2.53 µM)	relative viability ([4]; first compound 8 µM)
LXF-289	0.905	0.876	0.87	0.865	0.933	1.16	1.02	1.03	1.13	1.1	0.871	0.728	0.829	0.778	0.731	0.897	0.707	0.908	0.873	0.76
NCI-H23	0.666	0.691	0.741	0.641	0.581	0.37	0.324	0.319	0.276	0.242	0.511	0.583	0.548	0.442	0.486	0.784	0.614	0.644	0.486	0.69
NCI-H322M	0.654	0.621	0.62	0.634	0.647	0.698	0.816	0.881	0.796	0.638	0.476	0.541	0.578	0.539	0.498	0.909	0.85	0.831	0.89	0.85
NCI-H358	0.185	0.165	0.166	0.178	0.192	0.646	0.644	0.603	0.607	0.517	0.328	0.455	0.356	0.309	0.373	0.804	0.659	0.757	0.641	0.661
NCI-H441	0.301	0.288	0.269	0.268	0.261	0.631	0.384	0.622	0.646	0.549	0.479	0.432	0.705	0.534	0.294	0.824	0.563	1.18	0.605	0.616
NCI-H460	0.0612	0.0659	0.065	0.0654	0.0753	0.481	0.421	0.443	0.342	0.273	0.261	0.296	0.398	0.482	0.518	1.18	0.74	0.976	0.713	0.511
NCI-H520	0.655	0.62	0.651	0.687	0.574	0.308	0.368	0.323	0.304	0.266	0.376	0.212	0.338	0.302	0.316	0.755	0.675	0.787	0.638	0.67
NCI-H596	0.484	0.447	0.506	0.515	0.49	0.77	0.857	0.771	0.637	0.715	0.421	0.347	0.437	0.456	0.401	0.607	0.356	0.796	0.825	0.715
NCI-H647	0.179	0.158	0.243	0.221	0.243	0.602	0.492	0.517	0.642	0.268	0.298	0.421	0.421	0.501	0.427	0.546	0.547	0.773	0.504	0.683
NCI-H650	0.999	0.976	0.827	1.01	0.851	0.374	0.364	0.39	0.393	0.399	0.678	1.1	0.968	0.916	0.842	0.477	0.494	0.382	0.48	0.404
NCI-H661	0.909	0.949	0.958	0.891	0.868	0.78	0.815	0.701	0.661	0.631	0.434	0.196	0.443	0.384	0.569	0.839	0.739	0.852	0.806	0.793
NCI-H838	0.277	0.247	0.252	0.302	0.419	0.791	0.717	0.709	0.759	0.696	0.361	0.408	0.496	0.435	0.282	0.764	0.736	0.728	0.697	0.751
NCI-H1355	1.05	1.16	0.987	1.03	0.971	0.79	0.72	0.754	0.764	0.659	0.366	0.433	0.45	0.426	0.425	0.684	0.636	0.715	0.657	0.645
NCI-H1395	0.881	0.995	0.855	0.697	0.56	0.47	0.467	0.491	0.429	0.437	0.621	0.651	0.609	0.603	0.504	0.617	0.768	1.09	0.901	0.558
NCI-H1437	0.304	0.312	0.332	0.296	0.35	0.641	0.613	0.616	0.643	0.553	0.449	0.484	0.415	0.417	0.328	0.841	0.787	0.812	0.814	0.714
NCI-H1650	0.352	0.386	0.349	0.376	0.332	0.647	0.804	0.715	0.821	0.549	0.536	0.491	0.635	0.581	0.536	0.76	0.592	0.672	0.456	0.648
